Measured values reported in patent US8288375B2, “Fungicidal bicyclic pyrazoles” (E.I. du Pont de Nemours and Company, priority 2007, dated 2012).

Assays:
Format in all cases: in vivo
[1] = system: Puccinia recondite f sp. tritici; assay: Test B: wheat leaf rust, test suspension sprayed on wheat seedlings, disease rating; conditions: 200 ppm test suspension;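 note: 200 ppm unless marked * meaning 40 ppm or ** meaning 10 ppm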
Phytophthora infestans = assay: whole plant or invertebrate; conditions: 200 ppm test suspension
Plasmopara viticola = assay: Test K: grape downy mildew, grape seedlings inoculated and then sprayed, disease rating; conditions: 200 ppm test suspension
Fusarium graminearum = assay: whole plant or invertebrate; conditions: 200 ppm test suspension
Septoria nodorum = assay: Test D: wheat glume blotch, test suspension sprayed on wheat seedlings, disease rating; conditions: 200 ppm test suspension
[2] = system: Colletotrichum orbiculare; assay: Test F: cucumber Colletotrichum anthracnose, test suspension sprayed on cucumber seedlings, disease rating; conditions: 200 ppm test suspension
Rhizoctonia oryzae = assay: Test I: turf brown patch, test suspension sprayed on creeping bent grass seedlings, disease rating; conditions: 200 ppm test suspension
[3] = system: Erysiphe graminis f. sp. tritici; assay: Test A: wheat powdery mildew, test suspension sprayed on wheat seedlings, disease rating; conditions: 200 ppm test suspension; 100 = 100% disease control, 0 = no control
Pythium aphanidermatum = assay: Test L: bluegrass pythium blight, test suspension sprayed on bluegrass seedlings, disease rating; conditions: 200 ppm test suspension;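 note: 200 ppm unless marked * meaning 40 ppm or ** meaning 10 ppm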
Botrytis cinerea = assay: Test H: tomato Botrytis, test suspension sprayed on tomato seedlings, disease rating; conditions: 200 ppm test suspension

Row | Compound | Test B disease control rating [1] | Test J disease control rating (Phytophthora infestans) | Test K disease control rating (Plasmopara viticola) | Test C disease control rating (Fusarium graminearum) | Test D disease control rating (Septoria nodorum) | Test F disease control rating [2] | Test I disease control rating (Rhizoctonia oryzae) | Test A disease control rating [3] | Test L disease control rating (Pythium aphanidermatum) | Test H disease control rating (Botrytis cinerea)
1 | CC(C)Nc1nccc(-c2c(-c3ccc(F)cc3)nn3c2CCC3)n1 [compound 91] | 99% | 0% | 0% | 100% | 98% | 16% | 0% | 74% | 88% | 99%
2 | CCC(C)Nc1nccc(-c2c(-c3ccc(F)cc3)nn3c2CCCC3)n1 (centres unmarked) [compound 20] | 99% | 99% | 0% | 100% | 99% | 88% | 0% | 78% | 100% | 96%
3 | NCCNc1nccc(-c2c(-c3ccc(F)cc3)nn3c2CCCC3)n1 [compound 16] | 99% | 91% | 0% | 99% | 0% | 0% | 0% | 20% | 70% | 19%
4 | Fc1ccc(-c2nn3c(c2-c2ccnc(NC4CC4)n2)CCC3)cc1 [compound 92] | 99% | 99% | 0% | 100% | 99% | 80% | 0% | 94% | 99% | 90%
5 | Fc1ccc(-c2nn3c(c2-c2ccnc(NC4CC4)n2)CCC3)c(F)c1 [compound 94] | 97% | 99% | 0% | 100% | 98% | 24% | 16% | 82% | 99% | 96%
6 | Nc1nccc(-c2c(-c3ccc(F)cc3)nn3c2CCCC3)n1 [compound 10] | 99% | 64% | 0% | 99% | 87% | 0% | 0% | 90% | 42% | 63%
7 | CCC(C)Nc1nccc(-c2c(-c3ccc(F)cc3)nn3c2CCC3)n1 (centres unmarked) [compound 85] | 99% | 67% | 0% | 100% | 82% | 88% | 16% | 0% | 100% | 52%
8 | CNc1nccc(-c2c(-c3ccc(F)cc3)nn3c2CCC3)n1 [compound 90] | 99% | 99% | 0% | 100% | 100% | 17% | 0% | 96% | 97% | 0%
